The values that follow come from patent publication US8183263B2 (priority 2007, dated 2012).

Structures are written as SMILES.

This assay relates to HCV replicon. Kind of assay: HCV replicon replication assay (NPT level by captured ELISA). Type of assay: cell-based. As to conditions: Hepatitis C virus, 72 h; Huh-7 HCV replicon-containing cells, three days incubation; read-out: Activity (inhibition of HCV replicon replication). As for the experimental part: Compounds claimed herein are tested for the ability to inhibit viral replication of the Hepatitis C replicon in cultured cells in which the HCV replicon construct has been incorporated. The HCV replicon system was described by Bartenschlager, et. al (Science, 285, pp. 110-113 (1999)). The replicon system is predictive of in vivo anti-HCV activity; compounds that are active in humans uniformly evidence activity in the replicon assay.
In this assay HCV replicon containing cells are treated with different concentrations of the test compound to ascertain the ability of the test compound to suppress replication of the HCV replicon. As a positive control, HCV replicon-containing cells are treated with different concentrations of interferon alpha, a known inhibitor of HCV replication. The replicon assay system includes Neomycin Phosphotransferase (NPT) as a component of the replicon itself in order to detect the transcription of replicon gene products in the host cell. Cells in which the HCV replicon is actively replicating have high levels of NPT; the level of NPT is proportional to HCV replication. […] The NPT level of each sample is measured using a captured ELISA.
A protocol for testing compounds for the ability to inhibit viral replication of the Hepatitis C replicon cultured cells in which the replicon construct has been incorporated, follows.
The HCV replicon contains, 5′-3′, the HCV-IRES, the neomycin phosphotransferase (neo) gene, the IRES of encephalomyocarditis virus, which directs translation of HCV sequences NS3 to NS5B, and the 3′-NTR. The sequence of the HCV replicon has been deposited in GenBank (Accession no. AJ242652).
The replicon is transfected into Huh-7 cells using standard methods such as electroporation.
The equipment and materials include, but are not limited to, Huh-7 HCV replicon-containing cells, maintenance media (DMEM (Dulbecco's modified Eagle media) supplemented with 10% FBS, L-glutamine, non-essential amino acids, penicillin (100 units/ml), streptomycin (100 micrograms/ml), and 500 micrograms/ml of Geneticin (G418), screening media (DMEM supplemented with 10% FBS, L-glutamine, non-essential amino acids, penicillin (100 units/ml) and streptomycin (100 micrograms/ml)), 96 well tissue culture plates (flat bottom), 96 well plates (U bottom for drug dilution), Interferon alpha for positive control, fixation reagent (such as methanol: acetone), primary antibody (rabbit anti-NPTII), secondary antibody: Eu—N1 1, and enhancement solution.
HCV replicon-containing cells are rinsed with once PBS once; 2 mls of trypsin are then added. Cells are incubated at 37° C. in a 5% CO2 incubator for 3-5 minutes. 10 mls of complete medium is added to stop the reaction. Cells are blown gently, put into a 15 ml tube, and spun at 1200 rpm for four minutes. The trypsin/medium solution is removed and 5 mls of medium (500 ml DMEM (high glucose)) from BRL catalog #12430-054; 50 mls 10% FBS, 5% Geneticin G418 (50 mg/ml, BRL catalog #10131-035), 5 ml MEM non-essential amino acids (100×BRL #11140-050) and 5 ml pen-strep (BRL #15140-148) is added. The cells and media are mixed carefully
Cells are plated with screening medium (500 ml DMEM (BRL #21063-029), 50 ml FBS (BRL #10082-147) and 5 ml MEM non-essential amino acid (BRL #11140-050) at 6000-7500 cells/100 μl/well of 96 well plate (6-7.5×10^5 cells/10 ml/plate). Plates are placed into 37° C. 5% CO2 incubator overnight.
The following morning, drugs (test compounds or interferon alpha) are diluted in 96 well U bottom plates with media or DMSO/media, depending on the final concentration chosen for screening. Generally for 6 concentrations of each test compounds ranging from 10 micromolar to 0.03 micromolar are applied. 100 μl of the test compound dilution is placed in wells of the 96 well plate containing the HCV replicon cells. Media without drug is added to some wells as a negative controls. DMSO is known to affect cell growth. […]
(Replicon systems follow genome replication, usually without infectious particles.)

On to `Cc1ccc(CCCCOc2ccc(Nc3nc(-c4cccnc4)c(Cl)s3)cc2C(F)(F)F)cc1` [Cmp 109, 5-chloro-4-(pyridin-3-yl)-N-(4-(4-p-tolylbutoxy)-3-(trifluoromethyl)phenyl)thiazol-2-amine], for which the EC50 is < 1 µM.
`Cc1ccccc1CCCCOc1ccc(Nc2nc(-c3cccnc3)cs2)cc1C(F)(F)F` [Cmp 22, 4-(pyridin-3-yl)-N-(4-(4-o-tolylbutoxy)-3-(trifluoromethyl)phenyl)thiazol-2-amine]: the EC50 is < 1 µM.
Turning to `CCCCCCCCN(C)c1ccc(Nc2nc(-c3cccnc3)c(Cl)s2)cc1C(F)(F)F` [Cmp 158, N^4-(5-chloro-4-(pyridin-3-yl)thiazol-2-yl)-N^1-methyl-N^1-octyl-2-(trifluoromethyl)benzene-1,4-diamine], the EC50 is < 1 µM.
The value for `CCCCCCCCc1oc2ccc(Nc3nc(-c4cccnc4)cs3)cc2c1Cl` [Cmp 183, N-(3-chloro-2-octylbenzofuran-5-yl)-4-(pyridin-3-yl)thiazol-2-amine] was < 1 µM; that for `CCCCCCCCOc1ccc(Nc2nc(-c3cccnc3)c(CN(C)C)s2)cc1C(F)(F)F` [Cmp 157, 5-((dimethylamino)methyl)-N-(4-(octyloxy)-3-(trifluoromethyl)phenyl)-4-(pyridin-3-yl)thiazol-2-amine] was 1 to 10 µM.
`CCCCCc1nc2cc(Nc3nc(-c4cccnc4)c(F)s3)ccc2o1` [Cmp 65, N-(5-fluoro-4-(pyridin-3-yl)thiazol-2-yl)-2-pentylbenzo[d]oxazol-5-amine]: the EC50 was < 1 µM.
Consider `CCCCCCCCc1cc2cc(Nc3nc(-c4ccc5nncn5c4)cs3)ccc2o1` [Cmp 179, 4-([1,2,4]triazolo[4,3-a]pyridin-6-yl)-N-(2-octylbenzofuran-5-yl)thiazol-2-amine], for which the EC50 is < 1 µM.
As for `C/C=N/N(c1ccc(OCCCCCCCC)c(C(F)(F)F)c1)c1nc(-c2cccnc2)cs1` [Cmp 33, (E)-2-(2-ethylidene-1-(4-(octyloxy)-3-(trifluoromethyl)phenyl)hydrazinyl)-4-(pyridin-3-yl)thiazole], the EC50 is < 1 µM.
As for `N#Cc1ccc(Oc2ccc(Nc3nc(-c4cccnc4)cs3)cc2C(F)(F)F)cc1` [Cmp 48, 4-(4-(4-(pyridin-3-yl)thiazol-2-ylamino)-2-(trifluoromethyl)phenoxy)benzonitrile], the EC50 is < 1 µM.
For `FC(F)(F)c1cc(Nc2nc(-c3cccnc3)cs2)ccc1Oc1ccc(Cl)cc1` [Cmp 50, N-(4-(4-chlorophenoxy)-3-(trifluoromethyl)phenyl)-4-(pyridin-3-yl)thiazol-2-amine], the EC50 is < 1 µM.
For `CCCCCCCC(C)Oc1ccc(Nc2nc(-c3cccnc3)c(F)s2)cc1C(F)(F)F` (centres unmarked) [Cmp 218, 5-fluoro-N-(4-(nonan-2-yloxy)-3-(trifluoromethyl)phenyl)-4-(pyridin-3-yl)thiazol-2-amine], the EC50 was < 1 µM.
For `CCCOCCC#Cc1ccc(Nc2nc(-c3cccnc3)c(F)s2)cc1C(F)(F)F` [Cmp 222, 5-fluoro-N-(4-(4-propoxybut-1-ynyl)-3-(trifluoromethyl)phenyl)-4-(pyridin-3-yl)thiazol-2-amine], the EC50 was < 1 µM.
With `Cc1ccc(OCCCc2ccc(Nc3nc(-c4cccnc4)c(F)s3)cc2C(F)(F)F)cc1` [Cmp 127, 5-fluoro-4-(pyridin-3-yl)-N-(4-(3-(p-tolyloxy)propyl)-3-(trifluoromethyl)phenyl)thiazol-2-amine], the EC50 is < 1 µM.
The value for `CCc1ccc(Oc2ccc(Nc3nc(-c4cnc(OC)nc4)cs3)cc2C(F)(F)F)cc1` [Cmp 53, N-(4-(4-ethylphenoxy)-3-(trifluoromethyl)phenyl)-4-(2-methoxypyrimidin-5-yl)thiazol-2-amine] was < 1 µM; that for `CCCCCCCCOc1ccc(Nc2nc(-c3cccnc3)c(Cl)s2)cc1C(C)=O` [Cmp 169, 1-(5-(5-chloro-4-(pyridin-3-yl)thiazol-2-ylamino)-2-(octyloxy)phenyl)ethanone] was < 1 µM.
In the case of `Fc1sc(Nc2ccc(OCCOc3ccccc3)c(C(F)(F)F)c2)nc1-c1cccnc1` [Cmp 139, 5-fluoro-N-(4-(2-phenoxyethoxy)-3-(trifluoromethyl)phenyl)-4-(pyridin-3-yl)thiazol-2-amine], the EC50 is < 1 µM.
`FC(F)(F)c1cc(Nc2nc(-c3cccnc3)cs2)ccc1OCCCCc1ccncc1` [Cmp 137, 4-(pyridin-3-yl)-N-(4-(4-(pyridin-4-yl)butoxy)-3-(trifluoromethyl)phenyl)thiazol-2-amine]: the EC50 was < 1 µM.
With `CC/C=N/N(c1ccc(OCCCCCCCC)cc1)c1nc(-c2cccnc2)cs1` [Cmp 32, (E)-2-(1-(4-(octyloxy)phenyl)-2-propylidenehydrazinyl)-4-(pyridin-3-yl)thiazole], the EC50 is < 1 µM.
On to `CCCCCCCCOc1cc(Nc2nc(-c3cccnc3)c(F)s2)ccc1C(F)(F)F` [Cmp 78, 5-fluoro-N-(3-(octyloxy)-4-(trifluoromethyl)phenyl)-4-(pyridin-3-yl)thiazol-2-amine], for which the EC50 was < 1 µM.
With `CCCCCCCCOc1ccc(Nc2nc(-c3ccc(F)nc3)c(F)s2)cc1C(F)(F)F` [Cmp 175, 5-fluoro-4-(6-fluoropyridin-3-yl)-N-(4-(octyloxy)-3-(trifluoromethyl)phenyl)thiazol-2-amine], the EC50 was < 1 µM.
For `CCCCCCCCOc1ccc(Nc2nc(-c3cccnc3)cs2)cc1C(C)=O` [Cmp 140, 1-(2-(octyloxy)-5-(4-(pyridin-3-yl)thiazol-2-ylamino)phenyl)ethanone], the EC50 was < 1 µM.
As for `CCCCCCCCOc1ccc(Nc2nc(-c3cccnc3)cs2)cc1C(=O)O` [Cmp 155, 2-(octyloxy)-5-(4-(pyridin-3-yl)thiazol-2-ylamino)benzoic acid], the EC50 was > 10 µM.
In the case of `FC(F)(F)c1ccc(Nc2nc(-c3cccnc3)cs2)cc1Oc1ccccc1` [Cmp 102] it was 1 to 10 µM; in that of `Cc1ccc(CCCCOc2cc(Nc3nc(-c4cccnc4)cs3)ccc2C(F)(F)F)cc1` [Cmp 125, 4-(pyridin-3-yl)-N-(3-(4-p-tolylbutoxy)-4-(trifluoromethyl)phenyl)thiazol-2-amine], < 1 µM; in that of `CCc1ccc(Oc2ccc(Nc3nc(-c4cnc(OC)nc4)cs3)cc2C(C)=O)cc1` [Cmp 87, 1-(2-(4-ethylphenoxy)-5-(4-(2-methoxypyrimidin-5-yl)thiazol-2-ylamino)phenyl)ethanone], < 1 µM.
Turning to `CCCCCc1nc2cc(Nc3nc(-c4cnc(OC)nc4)c(F)s3)ccc2o1` [Cmp 56, N-(5-fluoro-4-(2-methoxypyrimidin-5-yl)thiazol-2-yl)-2-pentylbenzo[d]oxazol-5-amine], the EC50 is < 1 µM.
As for `CCCCCCCCc1ccc(Nc2nc(-c3cnccn3)c(Cl)s2)cc1C(F)(F)F` [Cmp 170, 5-chloro-N-(4-octyl-3-(trifluoromethyl)phenyl)-4-(pyrazin-2-yl)thiazol-2-amine], the EC50 was < 1 µM.
As for `COc1ncc(-c2csc(Nc3ccc(Oc4ccc(C#N)cc4)c(C(F)(F)F)c3)n2)cn1` [Cmp 52, 4-(4-(4-(2-methoxypyrimidin-5-yl)thiazol-2-ylamino)-2-(trifluoromethyl)phenoxy)benzonitrile], the EC50 was < 1 µM.
In the case of `CCCCCCCCOc1ccc(Nc2nc(-c3cccnc3)c(F)s2)cc1C(C)=O` [Cmp 149, 1-(5-(5-fluoro-4-(pyridin-3-yl)thiazol-2-ylamino)-2-(octyloxy)phenyl)ethanone] it was < 1 µM.
